# Reference: ChEMBL document CHEMBL3865804, “A Gestalt approach to Gram-negative entry” (2016)
# Legend:
# Type in all cases: functional
# Streptococcus pneumoniae = assay: Antibacterial activity against Streptococcus pneumoniae CL2883 by broth microdilution technique
# Staphylococcus aureus = assay: Antibacterial activity against Staphylococcus aureus MB2865 by broth microdilution technique
# Enterococcus faecalis = assay: Antibacterial activity against Enterococcus faecalis MB5407 by broth microdilution technique
# Escherichia coli = assay: Antibacterial activity against Escherichia coli MB2884 by broth microdilution technique
# Haemophilus influenzae = assay: Antibacterial activity against Haemophilus influenzae MB5363 by broth microdilution technique
# Klebsiella pneumoniae = assay: Antibacterial activity against Klebsiella pneumoniae MB4005 by broth microdilution technique
Compound,MIC (Streptococcus pneumoniae),MIC (Staphylococcus aureus),MIC (Enterococcus faecalis),MIC (Escherichia coli),MIC (Haemophilus influenzae),MIC (Klebsiella pneumoniae)
CC[C@H]1OC(=O)[C@H](C)[C@@H](O[C@H]2C[C@@](C)(OC)[C@@H](N)[C@H](C)O2)[C@H](C)[C@@H](O[C@@H]2O[C@H](C)C[C@H](N(C)C)[C@H]2O)[C@](C)(O)C[C@@H](C)N(C)C[C@H](C)[C@@H](O)[C@]1(C)O,≤ 0.06 µg/mL,1 µg/mL,2 µg/mL,0.13 µg/mL,0.25 µg/mL,0.13 µg/mL
CC[C@H]1OC(=O)[C@H](C)[C@@H](O[C@H]2C[C@@](C)(OC)[C@@H](O)[C@H](C)O2)[C@H](C)[C@@H](O[C@@H]2O[C@H](C)C[C@H](N(C)C)[C@H]2O)[C@](C)(O)C[C@@H](C)CN(C)[C@H](C)[C@@H](O)[C@]1(C)O [AZITHROMYCIN],0.03 µg/mL,1 µg/mL,4 µg/mL,1 µg/mL,0.5 µg/mL,2 µg/mL
CC[C@H]1OC(=O)[C@H](C)[C@@H](O[C@H]2C[C@@](C)(OC)[C@@H](O)[C@H](C)O2)[C@H](C)[C@@H](O[C@@H]2O[C@H](C)C[C@H](N(C)C)[C@H]2O)[C@](C)(O)C[C@@H](C)C(=O)[C@H](C)[C@@H](O)[C@]1(C)O [ERYTHROMYCIN],0.02 µg/mL,0.25 µg/mL,1 µg/mL,32 µg/mL,2 µg/mL,32 µg/mL
CC[C@H]1OC(=O)[C@H](C)[C@@H](O[C@H]2C[C@@](C)(OC)[C@@H](O)[C@H](C)O2)[C@H](C)[C@@H](O[C@@H]2O[C@H](C)C[C@H](N(C)C)[C@H]2O)[C@](C)(O)C[C@@H](C)N(C)C[C@H](C)[C@@H](O)[C@]1(C)O [L-701677],0.03 µg/mL,0.5 µg/mL,2 µg/mL,1 µg/mL,1 µg/mL,1 µg/mL
